This series can be described thus: ring-closing metathesis (C=C bond) of side-chain olefins, second-generation Grubbs catalyst 20 mol %, under argon, 2 h. Conditions: CH2Cl2, 20.0 mM, 25.0 °C.

Turning to `COC(=O)C1(NC(=O)[C@H](CC(C)C)NC(=O)[C@H](CC(C)C)NC(=O)[C@@H]2COCCCC=CC[C@]3(CCCN3C(=O)OCc3ccccc3)C(=O)N[C@@H](CC(C)C)C(=O)N[C@@H](CC(C)C)C(=O)N2)CCCC1`, the ring closure, isolated yield (from C=CCCCOC[C@H](NC(=O)[C@H](CC(C)C)NC(=O)[C@H](CC(C)C)NC(=O)[C@]1(CC=C)CCCN1C(=O)OCc1ccccc1)C(=O)N[C@@H](CC(C)C)C(=O)N[C@@H](CC(C)C)C(=O)NC1(C(=O)OC)CCCC1, 18-membered ring, 2.0 h) is 96%.

In turn, `COC(=O)[C@@H]1COCC=CCO[C@@H]2C[C@@H](C(=O)N1)N(C(=O)OC(C)(C)C)C2` displayed a ring closure, isolated yield (from C=CCOC[C@H](NC(=O)[C@@H]1C[C@@H](OCC=C)CN1C(=O)OC(C)(C)C)C(=O)OC, 13-membered ring) of 0%.

For `COC(=O)C1(NC(=O)[C@H](CC(C)C)NC(=O)[C@H](CC(C)C)NC(=O)C2(NC(=O)[C@H](CC(C)C)NC(=O)[C@H](CC(C)C)NC(=O)[C@@H]3COCCCC=CCO[C@H]4C[C@@H](C(=O)N3)N(C(=O)OC(C)(C)C)C4)CCCC2)CCCC1`, the ring closure, isolated yield (from C=CCCCOC[C@H](NC(=O)[C@@H]1C[C@H](OCC=C)CN1C(=O)OC(C)(C)C)C(=O)N[C@@H](CC(C)C)C(=O)N[C@@H](CC(C)C)C(=O)NC1(C(=O)N[C@@H](CC(C)C)C(=O)N[C@@H](CC(C)C)C(=O)NC2(C(=O)OC)CCCC2)CCCC1, 15-membered ring, 2.0 h) was found to be 93%.

In the case of `COC(=O)C1(NC(=O)[C@H](CC(C)C)NC(=O)[C@H](CC(C)C)NC(=O)C2(NC(=O)[C@H](CC(C)C)NC(=O)[C@H](CC(C)C)NC(=O)[C@@H]3COCC=CCO[C@H]4C[C@@H](C(=O)N3)N(C(=O)OC(C)(C)C)C4)CCCC2)CCCC1`, the ring closure, isolated yield (from C=CCOC[C@H](NC(=O)[C@@H]1C[C@H](OCC=C)CN1C(=O)OC(C)(C)C)C(=O)N[C@@H](CC(C)C)C(=O)N[C@@H](CC(C)C)C(=O)NC1(C(=O)N[C@@H](CC(C)C)C(=O)N[C@@H](CC(C)C)C(=O)NC2(C(=O)OC)CCCC2)CCCC1, 13-membered ring) was determined as 0%.

In turn, `COC(=O)[C@@H]1COCC=CCO[C@H]2C[C@@H](C(=O)N1)N(C(=O)OC(C)(C)C)C2` [Boc-cis-Hyp(OAllyl)-Ser(OAllyl)-OMe (cis-4-hydroxy-L-Pro)] came in with a ring closure, isolated yield (from C=CCOC[C@H](NC(=O)[C@@H]1C[C@H](OCC=C)CN1C(=O)OC(C)(C)C)C(=O)OC, 13-membered ring, 2.0 h) of 55%.

These data come from publication PMC7594088.
